Assay results taken from ChEMBL document CHEMBL1124501, “Novel cytotoxic compounds from the ascidian Lissoclinum bistratum” (J Med Chem, 1989).
≈ marks a conversion by molar mass, not a printed value.

How the values were obtained:
Format in all cases: functional, cell-based
MRC5CV1 = assay: Cytotoxicity evaluated by incorporation of [methyl-3H]thymidine into human MRC5CV1, a control fibroblast cell line
T-24 [1] = assay: Cytotoxicity evaluated by incorporation of [methyl-3H]thymidine into human T24, a bladder carcinoma cell line.
P388 = assay: Cytotoxicity in vitro against P388 cell line.; conditions: Mus musculus
T-24 [2] = assay: Cytotoxicity evaluated by incorporation of [methyl-3H]thymidine into human T24, a bladder carcinoma cell line

SMILES	IC50 (MRC5CV1) [µg/mL]	IC50 (T-24 [1]) [µg/mL]	IC50 (P388) [µg/mL]	IC50 (T-24 [2]) [µg/mL]
C/C=C/C(=O)CC1CCC2(O)CC(C)C(CCCNC(=O)C(C)C3CNC(=O)CC(O1)C(C)CCCCC(CCC(C)/C=C(\C)C(C)O)O3)O2 (centres undefined) [BISTRATENE A]	0.07 (≈ 0.0993 µM)	0.07 (≈ 0.0993 µM)	–	–
CC(C)[C@@H]1NC(=O)C2CSC(=N2)[C@H](Cc2ccccc2)NC(=O)C2CSC(=N2)[C@@H](C)NC(=O)[C@H]2N=C1O[C@@H]2C [BISTRATAMIDE A]	50 (≈ 87.6 µM)	0.07 (≈ 0.123 µM)	–	–
CCC/C=C/C=C/C(=O)O[C@H]1/C(=C/C(=O)OC)C[C@H]2CC([C@@H](C)O)OC(=O)C[C@H](O)C[C@@H]3C[C@H](OC(C)=O)C(C)(C)[C@](O)(C[C@@H]4C/C(=C/C(=O)OC)C[C@H](/C=C/C(C)(C)[C@]1(O)O2)O4)O3 (some centres undefined) [BRYOSTATINS]	–	–	0.89 (≈ 0.983 µM)	–
CC(C)[C@@H]1NC(=O)c2csc(n2)[C@H](Cc2ccccc2)NC(=O)C2CSC(=N2)[C@@H](C)NC(=O)[C@H]2N=C1O[C@@H]2C [BISTRATAMIDE B]	> 100	–	–	0.09 (≈ 0.158 µM)
C/C=C/C(=O)CC1CCC2(O)CC(C)C(CCCNC(=O)C(C)C3CNC(=O)CC(O1)C(C)CCCCC(CCC(C)/C=C(\C)C(C)OC(C)=O)O3)O2 (centres undefined) [BISTRATENE B]	0.09 (≈ 0.12 µM)	0.09 (≈ 0.12 µM)	–	–
